According to patent publication US9180118B2, “Thiadiazolidinone derivatives” (University of Rochester, priority 2006, dated 2015):
Like-named read-outs stand apart in the source and are kept apart here.

Assays:
K-562 = test: NCI-60 screen; type: cell-based; settings: Homo sapiens
Excerpt: (§1) In contrast the cell viability for normal specimens was 79.5% (n=13).

[1] = test system: Prostate cancer, 2 cell lines; test: NCI-60 screen; type: cell-based; settings: Homo sapiens
Excerpt: as §1

STK6 (Aurora A) = STK6 (Aurora A) (Homo sapiens, UniProt O14965); test: Kinase assay; type: biochemical
Protocol: (§2) Kinase Assays: Single point and titration assays are performed using protocols (or essentially using protocols) know in the art for kinase activity profiling against a battery of kinase targets, including, for example, those specifically delineated herein. Such assays include, for example, those available from commercial sources, contract research laboratories, and the like.

ROCK1 = ROCK1 (Homo sapiens, UniProt Q13464); test: Kinase assay; type: biochemical
Protocol: as §2

TEK (Tie2) = TEK (Tie2) (Homo sapiens, UniProt Q02763); test: Kinase assay; type: biochemical
TEK (Tie2), sequence (Q02763 23-1124, species assumed): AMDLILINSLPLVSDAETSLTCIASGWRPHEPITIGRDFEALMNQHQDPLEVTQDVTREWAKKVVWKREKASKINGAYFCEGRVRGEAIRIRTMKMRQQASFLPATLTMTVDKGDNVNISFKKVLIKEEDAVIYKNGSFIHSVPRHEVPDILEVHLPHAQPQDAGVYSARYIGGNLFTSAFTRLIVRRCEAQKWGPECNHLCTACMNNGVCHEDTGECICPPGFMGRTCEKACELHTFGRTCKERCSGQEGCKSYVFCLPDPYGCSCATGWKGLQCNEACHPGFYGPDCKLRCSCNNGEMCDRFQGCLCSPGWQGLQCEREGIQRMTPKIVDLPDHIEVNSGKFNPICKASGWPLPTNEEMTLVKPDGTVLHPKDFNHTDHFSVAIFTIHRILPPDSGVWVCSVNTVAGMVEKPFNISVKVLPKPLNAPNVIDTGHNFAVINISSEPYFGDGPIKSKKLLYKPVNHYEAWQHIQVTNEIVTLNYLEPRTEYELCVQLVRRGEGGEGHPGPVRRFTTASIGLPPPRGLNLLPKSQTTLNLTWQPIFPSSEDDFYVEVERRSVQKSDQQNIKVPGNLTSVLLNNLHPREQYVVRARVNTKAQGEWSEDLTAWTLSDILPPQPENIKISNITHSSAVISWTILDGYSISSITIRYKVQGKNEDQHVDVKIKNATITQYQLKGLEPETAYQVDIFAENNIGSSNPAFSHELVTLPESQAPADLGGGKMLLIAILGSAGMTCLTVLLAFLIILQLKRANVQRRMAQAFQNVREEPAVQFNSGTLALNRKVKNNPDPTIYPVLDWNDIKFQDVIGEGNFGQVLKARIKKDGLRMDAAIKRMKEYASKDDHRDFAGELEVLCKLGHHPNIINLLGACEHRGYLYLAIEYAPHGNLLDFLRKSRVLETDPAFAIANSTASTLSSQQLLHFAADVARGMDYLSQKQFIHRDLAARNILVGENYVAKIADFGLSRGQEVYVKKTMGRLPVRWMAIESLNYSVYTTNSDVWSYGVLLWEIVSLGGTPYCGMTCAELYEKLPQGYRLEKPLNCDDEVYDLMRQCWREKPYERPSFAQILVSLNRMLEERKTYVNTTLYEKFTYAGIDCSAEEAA
Protocol: as §2

PRKACA (PKA) = PRKACA (PKA) (Homo sapiens, UniProt P17612); test: Kinase assay; type: biochemical
Protocol: as §2

IGF1R = IGF1R (Homo sapiens, UniProt P08069); test: Kinase assay; type: biochemical
Protocol: as §2

CDK1/cyclin B = CDK1/cyclin B (Homo sapiens, UniProt P06493); test: Kinase assay; type: biochemical
Protocol: as §2

EPHA2 = EPHA2 (Homo sapiens, UniProt P29317); test: Kinase assay; type: biochemical
Protocol: as §2

JAK3 = JAK3 (Homo sapiens, UniProt P52333); test: Kinase assay; type: biochemical
Protocol: as §2

LCK = LCK (Homo sapiens, UniProt P06239); test: Kinase assay; type: biochemical
LCK, sequence (P06239 whole entry): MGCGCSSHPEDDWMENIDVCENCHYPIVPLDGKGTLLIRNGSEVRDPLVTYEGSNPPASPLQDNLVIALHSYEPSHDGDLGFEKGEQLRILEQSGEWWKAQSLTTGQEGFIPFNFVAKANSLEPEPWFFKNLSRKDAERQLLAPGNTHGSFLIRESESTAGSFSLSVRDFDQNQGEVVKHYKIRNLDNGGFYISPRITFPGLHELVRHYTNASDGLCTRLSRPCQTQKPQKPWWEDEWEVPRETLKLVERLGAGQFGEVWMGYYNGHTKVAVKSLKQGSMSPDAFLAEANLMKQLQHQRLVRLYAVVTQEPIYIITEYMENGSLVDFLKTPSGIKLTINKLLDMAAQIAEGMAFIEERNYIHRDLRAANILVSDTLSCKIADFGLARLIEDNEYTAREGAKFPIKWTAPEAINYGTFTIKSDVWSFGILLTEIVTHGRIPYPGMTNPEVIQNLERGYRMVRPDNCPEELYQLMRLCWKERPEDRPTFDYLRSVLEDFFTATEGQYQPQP
Protocol: as §2

PRKCG (PKC gamma) = PRKCG (PKC gamma) (Homo sapiens, UniProt P05129); test: Kinase assay; type: biochemical
Protocol: as §2

ABL1 = ABL1 (Homo sapiens, UniProt P00519); test: Kinase assay; type: biochemical
Protocol: as §2

MAPK14 (p38 alpha) = MAPK14 (p38 alpha) (Homo sapiens, UniProt Q16539); test: Kinase assay; type: biochemical
Protocol: as §2

KDR (VEGFR2) = KDR (VEGFR2) (Homo sapiens, UniProt P35968); test: Kinase assay; type: biochemical
Protocol: as §2

SYK = SYK (Homo sapiens, UniProt P43405); test: Kinase assay; type: biochemical
Protocol: as §2

KIT = KIT (Homo sapiens, UniProt P10721); test: Kinase assay; type: biochemical
KIT, sequence (P10721 26-976): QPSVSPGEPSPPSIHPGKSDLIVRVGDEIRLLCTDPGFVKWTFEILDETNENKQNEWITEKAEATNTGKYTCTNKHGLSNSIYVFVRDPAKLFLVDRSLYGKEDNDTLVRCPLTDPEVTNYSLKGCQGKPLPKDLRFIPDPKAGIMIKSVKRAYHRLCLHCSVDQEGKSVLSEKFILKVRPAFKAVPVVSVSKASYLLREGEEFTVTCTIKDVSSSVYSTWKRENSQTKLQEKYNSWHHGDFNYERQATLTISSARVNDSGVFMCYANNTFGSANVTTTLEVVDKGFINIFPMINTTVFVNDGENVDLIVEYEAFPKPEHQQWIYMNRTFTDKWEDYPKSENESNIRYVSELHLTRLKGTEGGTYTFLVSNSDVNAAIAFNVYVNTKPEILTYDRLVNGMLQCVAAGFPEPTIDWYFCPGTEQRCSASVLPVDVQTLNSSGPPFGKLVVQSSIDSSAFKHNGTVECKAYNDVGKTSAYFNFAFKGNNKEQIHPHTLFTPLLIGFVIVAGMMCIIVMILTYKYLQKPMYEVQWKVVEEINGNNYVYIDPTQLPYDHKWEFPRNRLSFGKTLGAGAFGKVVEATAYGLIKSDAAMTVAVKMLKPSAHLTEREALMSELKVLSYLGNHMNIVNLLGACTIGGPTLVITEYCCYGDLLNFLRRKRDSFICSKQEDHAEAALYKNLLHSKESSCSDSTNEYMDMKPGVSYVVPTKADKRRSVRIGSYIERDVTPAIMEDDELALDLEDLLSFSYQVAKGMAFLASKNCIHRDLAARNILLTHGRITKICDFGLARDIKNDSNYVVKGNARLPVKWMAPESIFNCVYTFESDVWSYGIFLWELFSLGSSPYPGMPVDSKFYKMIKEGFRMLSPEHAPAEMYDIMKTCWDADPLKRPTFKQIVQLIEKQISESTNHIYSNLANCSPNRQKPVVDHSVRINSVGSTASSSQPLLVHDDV
Protocol: as §2

RPS6KA3 (RSK2) = RPS6KA3 (RSK2) (Homo sapiens, UniProt P51812); test: Kinase assay; type: biochemical
RPS6KA3 (RSK2), sequence (P51812 whole entry, species assumed): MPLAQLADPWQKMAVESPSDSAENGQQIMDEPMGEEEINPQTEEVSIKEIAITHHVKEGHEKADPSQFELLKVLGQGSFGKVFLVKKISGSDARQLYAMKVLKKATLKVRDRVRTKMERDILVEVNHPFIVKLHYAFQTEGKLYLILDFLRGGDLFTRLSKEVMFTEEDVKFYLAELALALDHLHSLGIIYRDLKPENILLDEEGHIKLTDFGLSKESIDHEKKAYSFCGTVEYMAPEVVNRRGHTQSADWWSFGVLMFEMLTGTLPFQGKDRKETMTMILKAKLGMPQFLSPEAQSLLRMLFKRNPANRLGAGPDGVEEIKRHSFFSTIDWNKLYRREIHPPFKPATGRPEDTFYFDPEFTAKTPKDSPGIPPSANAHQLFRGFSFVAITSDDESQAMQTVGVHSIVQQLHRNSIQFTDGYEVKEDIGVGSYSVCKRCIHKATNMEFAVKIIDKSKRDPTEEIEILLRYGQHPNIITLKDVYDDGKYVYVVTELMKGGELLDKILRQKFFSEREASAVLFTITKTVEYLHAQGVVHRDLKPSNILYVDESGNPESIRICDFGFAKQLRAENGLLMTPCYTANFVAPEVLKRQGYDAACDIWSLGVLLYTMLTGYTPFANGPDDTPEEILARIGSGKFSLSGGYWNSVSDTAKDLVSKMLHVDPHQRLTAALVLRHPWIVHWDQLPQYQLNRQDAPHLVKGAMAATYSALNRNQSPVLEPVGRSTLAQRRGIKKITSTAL
Protocol: as §2

CHEK1 (CHK1) = CHEK1 (CHK1) (Homo sapiens, UniProt O14757); test: Kinase assay; type: biochemical
CHEK1 (CHK1), sequence (O14757 whole entry): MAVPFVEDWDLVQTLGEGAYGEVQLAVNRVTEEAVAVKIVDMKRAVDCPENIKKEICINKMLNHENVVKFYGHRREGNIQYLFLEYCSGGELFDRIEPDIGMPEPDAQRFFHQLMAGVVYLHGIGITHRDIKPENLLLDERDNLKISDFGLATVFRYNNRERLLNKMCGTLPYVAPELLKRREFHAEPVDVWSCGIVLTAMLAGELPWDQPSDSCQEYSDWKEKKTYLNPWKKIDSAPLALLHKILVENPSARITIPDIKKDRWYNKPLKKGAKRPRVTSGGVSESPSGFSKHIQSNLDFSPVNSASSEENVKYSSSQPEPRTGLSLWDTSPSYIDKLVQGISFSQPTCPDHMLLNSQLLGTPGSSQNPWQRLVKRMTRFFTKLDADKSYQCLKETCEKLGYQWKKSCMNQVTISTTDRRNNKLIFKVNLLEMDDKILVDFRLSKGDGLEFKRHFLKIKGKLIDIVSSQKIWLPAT
Protocol: as §2

INSR = INSR (Homo sapiens, UniProt P06213); test: Kinase assay; type: biochemical
Protocol: as §2

IRAK4 = IRAK4 (Homo sapiens, UniProt Q9NWZ3); test: Kinase assay; type: biochemical
IRAK4, sequence (Q9NWZ3 whole entry): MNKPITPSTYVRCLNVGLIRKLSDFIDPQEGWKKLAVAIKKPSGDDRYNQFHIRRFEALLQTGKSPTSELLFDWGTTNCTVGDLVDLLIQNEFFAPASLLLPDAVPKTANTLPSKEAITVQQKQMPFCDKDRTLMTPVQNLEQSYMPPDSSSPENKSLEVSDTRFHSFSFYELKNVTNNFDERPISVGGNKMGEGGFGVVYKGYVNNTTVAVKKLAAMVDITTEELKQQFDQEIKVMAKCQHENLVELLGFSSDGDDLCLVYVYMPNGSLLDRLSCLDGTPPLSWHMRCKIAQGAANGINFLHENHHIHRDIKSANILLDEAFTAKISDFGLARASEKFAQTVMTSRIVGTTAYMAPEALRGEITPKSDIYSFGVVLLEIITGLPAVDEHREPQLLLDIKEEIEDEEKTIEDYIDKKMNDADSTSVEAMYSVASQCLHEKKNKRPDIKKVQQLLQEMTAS
Protocol: as §2

PIM1 = PIM1 (Homo sapiens, UniProt P11309); test: Kinase assay; type: biochemical
Protocol: as §2

ERBB2 (HER2) = ERBB2 (HER2) (Homo sapiens, UniProt P04626); test: Kinase assay; type: biochemical
Protocol: as §2

MAP4K4 (HGK) = MAP4K4 (HGK) (Homo sapiens, UniProt O95819); test: Kinase assay; type: biochemical
Protocol: as §2

PRKCQ (PKC theta) = PRKCQ (PKC theta) (Homo sapiens, UniProt Q04759); test: Kinase assay; type: biochemical
Protocol: as §2

EGFR (ErbB1) = EGFR (ErbB1) (Homo sapiens, UniProt P00533); test: Kinase assay; type: biochemical
Protocol: as §2

FGFR1 = FGFR1 (Homo sapiens, UniProt P11362); test: Kinase assay; type: biochemical
Protocol: as §2

MAPKAPK2 = MAPKAPK2 (Homo sapiens, UniProt P49137); test: Kinase assay; type: biochemical
Protocol: as §2

NTRK1 (TRKA) = NTRK1 (TRKA) (Homo sapiens, UniProt P04629); test: Kinase assay; type: biochemical
Protocol: as §2

CSNK2A1 (CK2 alpha 1) = CSNK2A1 (CK2 alpha 1) (Homo sapiens, UniProt P68400); test: Kinase assay; type: biochemical
Protocol: as §2

PRKCB2 (PKC beta II) = PRKCB2 (PKC beta II) (Homo sapiens, UniProt P05771); test: Kinase assay; type: biochemical
PRKCB2 (PKC beta II), sequence (P05771 1-673 isoform P05771-2): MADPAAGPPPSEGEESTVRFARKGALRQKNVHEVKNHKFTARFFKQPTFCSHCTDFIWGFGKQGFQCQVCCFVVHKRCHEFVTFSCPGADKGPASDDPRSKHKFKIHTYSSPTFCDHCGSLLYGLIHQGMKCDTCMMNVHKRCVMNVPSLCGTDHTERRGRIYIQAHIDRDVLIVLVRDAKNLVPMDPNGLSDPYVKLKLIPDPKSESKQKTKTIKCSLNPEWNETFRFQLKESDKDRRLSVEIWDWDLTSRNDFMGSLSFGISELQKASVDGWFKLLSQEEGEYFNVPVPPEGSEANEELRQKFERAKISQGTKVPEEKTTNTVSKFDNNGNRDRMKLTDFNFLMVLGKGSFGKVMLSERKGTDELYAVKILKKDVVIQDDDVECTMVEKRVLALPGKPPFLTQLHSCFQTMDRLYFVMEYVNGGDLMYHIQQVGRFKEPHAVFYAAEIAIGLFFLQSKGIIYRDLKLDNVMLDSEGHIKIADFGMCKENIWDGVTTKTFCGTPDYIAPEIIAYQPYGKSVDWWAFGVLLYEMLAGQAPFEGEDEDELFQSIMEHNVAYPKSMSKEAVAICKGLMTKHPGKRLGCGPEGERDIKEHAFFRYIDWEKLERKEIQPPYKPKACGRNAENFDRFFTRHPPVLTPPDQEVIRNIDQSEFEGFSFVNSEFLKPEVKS
Protocol: as §2

PRKCN (PKD3) = PRKCN (PKD3) (Homo sapiens, UniProt O94806); test: Kinase assay; type: biochemical
Protocol: as §2

RET = RET (Homo sapiens, UniProt P07949); test: Kinase assay; type: biochemical
Protocol: as §2

PRKCZ (PKC zeta) = PRKCZ (PKC zeta) (Homo sapiens, UniProt Q05513); test: Kinase assay; type: biochemical
Protocol: as §2

PHKG2 = PHKG2 (Homo sapiens, UniProt P15735); test: Kinase assay; type: biochemical
Protocol: as §2

MAPK3 (ERK1) = MAPK3 (ERK1) (Homo sapiens, UniProt P27361); test: Kinase assay; type: biochemical
Protocol: as §2

MET (cMet) = MET (cMet) (Homo sapiens, UniProt P08581); test: Kinase assay; type: biochemical
Protocol: as §2

AKT1 (PKB alpha) = AKT1 (PKB alpha) (Homo sapiens, UniProt P31749); test: Kinase assay; type: biochemical
Protocol: as §2

[2] = test system: cell lines derived from hematologic malignancies; test: NCI-60 screen, average; type: cell-based; settings: Homo sapiens; average over hematologic lines of NCI-60; read-out: average concentration to achieve 50% growth inhibition (GI50)
Excerpt: as §1

Compound `Cn1sc(=O)n(Cc2ccccc2)c1=O` [TDZD-8, 4-benzyl-2-methyl-1,2,4-thiadiazolidine-3,5-dione] has a GI50 (K-562; K562, read-out: GI50) of 6.5 µM, a GI50 (K-562; K562, read-out: Log10 GI50 (converted)) of 6.46 µM and a GI50 ([1]; read-out: GI50) of over 100 µM. It also gave a GI50 ([1]; read-out: Log10 GI50 (converted)) of over 100 µM, an inhibition at 20 µM (STK6 (Aurora A)) of 99% and an inhibition at 20 µM (ROCK1) of 113%. For the same compound, the inhibition at 20 µM (TEK (Tie2)) was 9%, the “% Inhibition mean” value (TEK (Tie2); TDZD-8 20 μM) was “little to no inhibition” and the inhibition at 20 µM (PRKACA (PKA)) was 18%. It also gave an inhibition at 20 µM (IGF1R) of -2%, an inhibition at 20 µM (CDK1/cyclin B) of 15% and an inhibition at 20 µM (EPHA2) of 3%. It also gave an inhibition at 20 µM (JAK3) of -1%, an inhibition at 20 µM (LCK) of -9% and an inhibition at 20 µM (PRKCG (PKC gamma)) of 103%. For the same compound, the inhibition at 20 µM (ABL1) was 70%, the inhibition at 20 µM (MAPK14 (p38 alpha)) was 97% and the inhibition at 20 µM (KDR (VEGFR2)) was 100%. The inhibition at 20 µM (SYK) was 99%, the inhibition at 20 µM (KIT) was -6% and the “% Inhibition mean” value (KIT; TDZD-8 20 μM) was “little to no inhibition”. For the same compound, the inhibition at 20 µM (RPS6KA3 (RSK2)) was 101%, the inhibition at 20 µM (CHEK1 (CHK1)) was 87% and the inhibition at 20 µM (INSR) was 9%. The inhibition at 20 µM (IRAK4) was 8%, the inhibition at 20 µM (PIM1) was 95% and the inhibition at 20 µM (ERBB2 (HER2)) was 12%. The inhibition at 20 µM (MAP4K4 (HGK)) was 99%, the inhibition at 20 µM (PRKCQ (PKC theta)) was 101% and the inhibition at 20 µM (EGFR (ErbB1)) was 1%. The inhibition at 20 µM (FGFR1) was 1%, the inhibition at 20 µM (MAPKAPK2) was 99% and the inhibition at 20 µM (NTRK1 (TRKA)) was -9%. For the same compound, the inhibition at 20 µM (CSNK2A1 (CK2 alpha 1)) was 27%, the inhibition at 20 µM (PRKCB2 (PKC beta II)) was 99% and the inhibition at 20 µM (PRKCN (PKD3)) was 94%. The inhibition at 20 µM (RET) was 34%, the inhibition at 20 µM (PRKCZ (PKC zeta)) was 100% and the inhibition at 20 µM (PHKG2) was 80%. It also gave an inhibition at 20 µM (MAPK3 (ERK1)) of 61%, an inhibition at 20 µM (MET (cMet)) of 90% and an inhibition at 20 µM (AKT1 (PKB alpha)) of 102%. For the same compound, the GI50 [2] was 8.3 µM.
